Test results: article PMC9022596, “Convergent Evolution of Antibiotic Tolerance in Patients with Persistent Methicillin-Resistant Staphylococcus aureus Bacteremia” (Infection and Immunity, 2022)
Several values for one entry are separate records, joined by “and”; a condition that tells them apart may be missing. Identical values can stand only once.

Assays:
Test in all cases: microbe, parasite or virus in culture
[1] = system: T1, Staphylococcus aureus PB0804; design: species or system Staphylococcus aureus clinical blood isolates and ATCC 29213; Broth microdilution MIC in cation-adjusted Mueller-Hinton broth with 50 ug/mL CaCl2, EUCAST reading, 37 C; details: PB0804, 16 h, replicate MIC, MHB + 50 ug/mL CaCl2
T1 construct: PB0804
Procedure: (§1) MICs were measured in cation-adjusted Mueller-Hinton broth (MHB) supplemented with 50 μg/mL CaCl2 (MHB-Ca^2+) via broth microdilution in 96-well plates with an inoculum of ∼5 × 10^5 CFU per mL. Antibiotic test concentrations ranged from 0.0625 μg/mL to 32 μg/mL by 2-fold dilutions. Plates were incubated at 37°C for 16 h without shaking, and results were interpreted in accordance with European Committee on Antimicrobial Susceptibility Testing reading guidelines ([72]). S. aureus ATCC 29213 was used as a quality-control strain.

[2] = system: T2, Staphylococcus aureus PB0911; design: species or system Staphylococcus aureus clinical blood isolates and ATCC 29213; Broth microdilution MIC in cation-adjusted Mueller-Hinton broth with 50 ug/mL CaCl2, EUCAST reading, 37 C; details: PB0911, 16 h, replicate MIC, MHB + 50 ug/mL CaCl2
T2 construct: PB0911
Procedure: as §1

[3] = system: T3, Staphylococcus aureus PB0906; design: species or system Staphylococcus aureus clinical blood isolates and ATCC 29213; Broth microdilution MIC in cation-adjusted Mueller-Hinton broth with 50 ug/mL CaCl2, EUCAST reading, 37 C; details: PB0906, 16 h, replicate MIC, MHB + 50 ug/mL CaCl2
T3 construct: PB0906
Procedure: as §1

[4] = system: T4, Staphylococcus aureus PB0208; design: species or system Staphylococcus aureus clinical blood isolates and ATCC 29213; Broth microdilution MIC in cation-adjusted Mueller-Hinton broth with 50 ug/mL CaCl2, EUCAST reading, 37 C; details: PB0208, 16 h, replicate MIC, MHB + 50 ug/mL CaCl2
T4 construct: PB0208
Procedure: as §1

[5] = system: T5, Staphylococcus aureus PB0207; design: species or system Staphylococcus aureus clinical blood isolates and ATCC 29213; Broth microdilution MIC in cation-adjusted Mueller-Hinton broth with 50 ug/mL CaCl2, EUCAST reading, 37 C; details: PB0207, 16 h, replicate MIC, MHB + 50 ug/mL CaCl2
T5 construct: PB0207
Procedure: as §1

[6] = system: T6, Staphylococcus aureus PB1802; design: species or system Staphylococcus aureus clinical blood isolates and ATCC 29213; Broth microdilution MIC in cation-adjusted Mueller-Hinton broth with 50 ug/mL CaCl2, EUCAST reading, 37 C; details: PB1802, 16 h, replicate MIC, MHB + 50 ug/mL CaCl2
T6 construct: PB1802
Procedure: as §1

[7] = system: T7, Staphylococcus aureus PB0101; design: species or system Staphylococcus aureus clinical blood isolates and ATCC 29213; Broth microdilution MIC in cation-adjusted Mueller-Hinton broth with 50 ug/mL CaCl2, EUCAST reading, 37 C; details: PB0101, 16 h, replicate MIC, MHB + 50 ug/mL CaCl2
T7 construct: PB0101
Procedure: as §1

[8] = system: T8, Staphylococcus aureus PB0610; design: species or system Staphylococcus aureus clinical blood isolates and ATCC 29213; Broth microdilution MIC in cation-adjusted Mueller-Hinton broth with 50 ug/mL CaCl2, EUCAST reading, 37 C; details: PB0610, 16 h, replicate MIC, MHB + 50 ug/mL CaCl2
T8 construct: PB0610
Procedure: as §1

[9] = system: T9, Staphylococcus aureus PB1803; design: species or system Staphylococcus aureus clinical blood isolates and ATCC 29213; Broth microdilution MIC in cation-adjusted Mueller-Hinton broth with 50 ug/mL CaCl2, EUCAST reading, 37 C; details: PB1803, 16 h, replicate MIC, MHB + 50 ug/mL CaCl2
T9 construct: PB1803
Procedure: as §1

[10] = system: T10, Staphylococcus aureus PB1512; design: species or system Staphylococcus aureus clinical blood isolates and ATCC 29213; Broth microdilution MIC in cation-adjusted Mueller-Hinton broth with 50 ug/mL CaCl2, EUCAST reading, 37 C; details: PB1512, 16 h, replicate MIC, MHB + 50 ug/mL CaCl2
T10 construct: PB1512
Procedure: as §1

[11] = system: T11, Staphylococcus aureus PB0102; design: species or system Staphylococcus aureus clinical blood isolates and ATCC 29213; Broth microdilution MIC in cation-adjusted Mueller-Hinton broth with 50 ug/mL CaCl2, EUCAST reading, 37 C; details: PB0102, 16 h, replicate MIC, MHB + 50 ug/mL CaCl2
T11 construct: PB0102
Procedure: as §1

[12] = system: T12, Staphylococcus aureus PB1505; design: Broth microdilution MIC in cation-adjusted MHB-Ca2+, growth inhibition per EUCAST reading; details: PB1505, 16 h
T12 construct: PB1505
Procedure: (§2) MICs were measured in cation-adjusted Mueller-Hinton broth (MHB) supplemented with 50 μg/mL CaCl2 (MHB-Ca^2+) via broth microdilution in 96-well plates with an inoculum of ∼5 × 10^5 CFU per mL. Antibiotic test concentrations ranged from 0.0625 μg/mL to 32 μg/mL by 2-fold dilutions. Plates were incubated at 37°C for 16 h without shaking, and results were interpreted in accordance with European Committee on Antimicrobial Susceptibility Testing reading guidelines ([72]). S. aureus ATCC 29213 was used as a quality-control strain. TCA cycle defects have been shown previously to cause antibiotic tolerance in laboratory strains of methicillin-sensitive S. aureus (MSSA) ([13], [16]). […] To test this hypothesis, we complemented three of the clinical isolates harboring loss-of-function citZ mutations with either wild-type citZ (pOS1-citZ) or empty vector (pOS1) and then measured bacterial survival through time after exposure to ceftaroline, daptomycin, vancomycin, or the combination of daptomycin plus ceftaroline (Fig. 3). These antibiotics were chosen for their clinical relevance in the treatment of severe MRSA infection.

[13] = system: T13, Staphylococcus aureus PB0412; design: Broth microdilution MIC in cation-adjusted MHB-Ca2+, growth inhibition per EUCAST reading; details: PB0412, 16 h
T13 construct: PB0412
Procedure: as §2

Structure (SMILES)	MIC [1]	MIC [2]	MIC [3]	MIC [4]	MIC [5]	MIC [6]	MIC [7]	MIC [8]	MIC [9]	MIC [10]	MIC [11]	MIC ([12]; replicate 1)	MIC ([12]; replicate 2)	MIC ([13]; replicate 1)	MIC ([13]; replicate 2)
CCCCCCCCCC(=O)N[C@@H](Cc1c[nH]c2ccccc12)C(=O)N[C@H](CC(N)=O)C(=O)N[C@@H](CC(=O)O)C(=O)N[C@@H]1C(=O)NCC(=O)N[C@@H](CCCN)C(=O)N[C@@H](CC(=O)O)C(=O)N[C@H](C)C(=O)N[C@@H](CC(=O)O)C(=O)NCC(=O)N[C@H](CO)C(=O)N[C@@H]([C@H](C)CC(=O)O)C(=O)N[C@@H](CC(=O)c2ccccc2N)C(=O)O[C@@H]1C [Daptomycin]	1 µg/mL	2 µg/mL and 1 µg/mL	2 µg/mL	1 µg/mL	1 µg/mL	2 µg/mL	1 µg/mL	1 µg/mL	2 µg/mL	1 µg/mL	2 µg/mL	1 µg/mL	2 µg/mL	2 µg/mL	2 µg/mL
CN[C@H](CC(C)C)C(=O)N[C@H]1C(=O)N[C@@H](CC(N)=O)C(=O)N[C@H]2C(=O)N[C@H]3C(=O)N[C@H](C(=O)N[C@H](C(=O)O)c4cc(O)cc(O)c4-c4cc3ccc4O)[C@H](O)c3ccc(c(Cl)c3)Oc3cc2cc(c3O[C@@H]2O[C@H](CO)[C@@H](O)[C@H](O)[C@H]2O[C@H]2C[C@](C)(N)[C@H](O)[C@H](C)O2)Oc2ccc(cc2Cl)[C@H]1O [Vancomycin]	2 µg/mL	2 µg/mL	2 µg/mL	4 µg/mL	2 µg/mL and 1 µg/mL	2 µg/mL	2 µg/mL	2 µg/mL and 4 µg/mL	2 µg/mL	2 µg/mL	2 µg/mL	2 µg/mL	2 µg/mL	2 µg/mL	2 µg/mL
CCO/N=C(\C(=O)N[C@@H]1C(=O)N2C(C(=O)[O-])=C(Sc3nc(-c4cc[n+](C)cc4)cs3)CS[C@H]12)c1nsc(N)n1 [Ceftaroline]	0.5 µg/mL	0.5 µg/mL	0.5 µg/mL	0.5 µg/mL	0.5 µg/mL	0.5 µg/mL	0.5 µg/mL	0.25 µg/mL	0.5 µg/mL	0.5 µg/mL	0.5 µg/mL	0.5 µg/mL	0.5 µg/mL	0.5 µg/mL	0.5 µg/mL
CC(=O)NC[C@H]1CN(c2ccc(N3CCOCC3)c(F)c2)C(=O)O1 [Linezolid]	2 µg/mL	4 µg/mL	4 µg/mL	4 µg/mL	4 µg/mL	4 µg/mL	4 µg/mL	4 µg/mL	4 µg/mL	4 µg/mL	4 µg/mL	4 µg/mL	4 µg/mL	4 µg/mL	4 µg/mL
